Laboratory results from patent publication US7799785B2, “Substituted tetracyclic tetahydrofuran, pyrrolidine and tetrahydrothiophene derivatives” (Janssen Pharmaceutica NV, priority 2004, dated 2010).

How the values were obtained:
NET = molecular target: T1, NET (Rattus norvegicus, UniProt Q63380); test: In vitro determination of NET reuptake inhibition ([3H]Nixosetine binding, rat brain cortex membranes)
T1 construct: Cortex from rat brain was collected and homogenised; from tissue; host or cells: rat brain cortex homogenate/membranes
Procedure: In vitro Determination of NET Reuptake Inhibition
Cortex from rat brain was collected and homogenised using an Ultra-Turrax T25 and a Dual homogeniser in ice-cold homogenising buffer containing Tris, NaCl and KCl (50 mM, 120 mM and 5 mM, respectively, pH 7.4) prior to dilution to an appropriate protein concentration optimised for specific and non-specific binding. […] Membrane-bound activity was detected by filtration through a Packard Filtermate harvester onto GF/B Unifilterplates, washed with ice-cold Tris-HCl buffer, containing NaCl and KCl (50 mM, 120 mM and 4 mM; pH 7.4; 6×0.5 ml). Filters were allowed to dry for 24 h before adding scintillation fluid. Scintillation fluid was allowed to saturate filters for 24 h before counting in a Topcount scintillation counter. Percentage specific bound and competition binding curves were calculated using S-Plus software (Insightful).

T1 sequence (Q63380 1-617): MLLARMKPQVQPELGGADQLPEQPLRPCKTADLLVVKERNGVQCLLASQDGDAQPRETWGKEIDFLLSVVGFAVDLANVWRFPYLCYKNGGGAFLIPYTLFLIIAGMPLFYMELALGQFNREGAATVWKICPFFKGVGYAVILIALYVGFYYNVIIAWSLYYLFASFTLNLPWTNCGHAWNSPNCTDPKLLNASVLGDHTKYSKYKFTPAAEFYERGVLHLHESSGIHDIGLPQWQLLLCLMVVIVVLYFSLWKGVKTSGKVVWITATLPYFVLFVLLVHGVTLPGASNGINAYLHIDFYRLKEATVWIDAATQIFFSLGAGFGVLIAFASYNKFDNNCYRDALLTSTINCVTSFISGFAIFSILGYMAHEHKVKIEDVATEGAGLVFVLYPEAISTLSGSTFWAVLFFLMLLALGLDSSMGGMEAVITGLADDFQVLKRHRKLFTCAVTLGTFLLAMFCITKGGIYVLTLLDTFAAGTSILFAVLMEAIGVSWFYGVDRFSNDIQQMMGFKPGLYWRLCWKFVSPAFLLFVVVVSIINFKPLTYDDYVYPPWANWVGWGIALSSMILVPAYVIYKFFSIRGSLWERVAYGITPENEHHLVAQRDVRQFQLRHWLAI

Compound	IC50 (NET) [nM]	further results
CN(C)CC1CO[C@@H]2c3cc(F)ccc3Cc3ccccc3[C@@H]12 (mixture of isomers) [compound 47, [(3aR,12bS)-11-fluoro-3,3a,8,12b-tetrahydro-2H-dibenzo[3,4:6,7]cyclohepta[1,2-b]furan-3-yl]-N,N-dimethylmethanamine]	11	
CSC1=NC[C@H]2C[C@@H]3c4ccccc4Cc4ccc(F)cc4[C@H]3N12 [compound 9, (4aS,13bR,14aR)-6-fluoro-3-(methylsulfanyl)-1,4a,9,13b,14,14a-hexahydrodibenzo[3′,4′:6′,7′]cyclohepta[1′,2′:4,5]pyrrolo[1,2-c]imidazole]	3980	
CC(=O)N1[C@@H](CN(C)C)C[C@@H]2c3ccccc3Cc3ccc(F)cc3[C@H]21 [36b, [(2R,3aR,12bS)-1-acetyl-11-fluoro-1,2,3,3a,8,12b-hexahydrodibenzo[3,4:6,7]-cyclohepta[1,2-b]pyrrol-2-yl]-N,N-dimethylmethanamine]	3890	
CN(C)C[C@H]1C[C@@H]2c3ccccc3Cc3ccc(F)cc3[C@H]2N1CCO [compound 39, 2-((2R,3aR,12bS)-2-[(dimethylamino)methyl]-11-fluoro-3,3a,8,12b-tetrahydrodibenzo[3,4:6,7]cyclohepta[1,2-b]pyrrol-1(2H)-yl)ethanol]	126	
COC(=O)N1[C@@H](CN(C)C)CC[C@@H]2c3ccccc3Cc3ccc(F)cc3[C@H]21 [compound 45, Methyl(2R,4aR,13bS)-2-[(dimethylamino)methyl]-12-fluoro-2,3,4,4a,9,13b-hexahydro-1H-dibenzo[3,4:6,7]cyclohepta[1,2-b]pyridine-1-carboxylate]	794	
O=C1NC[C@@H]2C[C@@H]3c4ccccc4Cc4ccc(F)cc4[C@H]3N12 [compound 15, (4aS,13bR,14aS)-6-fluoro-1,4a,9,13b,14,14a-hexahydrodibenzo[3′,4′:6′,7′]-cyclohepta[1′,2′:4,5]pyrrolo[1,2-c]imidazol-3(2H)-one]	2400	
CN1C[C@H]2C[C@@H]3c4ccccc4Cc4ccc(F)cc4[C@H]3N2C1=O [compound 7, (4aS,13bR,14aR)-6-fluoro-2-methyl-1,4a,9,13b,14,14a-hexahydrodibenzo-[3′,4′:6′,7′]cyclohepta[1′,2′:4,5]pyrrolo[1,2-c]imidazol-3(2H)-one]	891	
CN1CC(=O)N2[C@@H](C[C@@H]3c4ccccc4Cc4ccc(F)cc4[C@H]32)C1 [compound 4, (5aS,14bR,15aS)-7-fluoro-2-methyl-1,2,3,5a,10,14b,15,15a-octahydro-4H-dibenzo[3′,4′:6′,7′]cyclohepta[1′,2′:4,5]pyrrolo[1,2-a]pyrazin-4-one]		NET Reuptake Inhibition (NET): <5
Fc1ccc2c(c1)[C@@H]1[C@H](C[C@@H]3CNC(=S)N31)c1ccccc1C2 [compound 8, (4aS,13bR,14aR)-6-fluoro-1,4a,9,13b,14,14a-hexahydrodibenzo[3′,4′:6′,7′]-cyclohepta[1′,2′:4,5]pyrrolo[1,2-c]imidazole-3(2H)-thione]		NET Reuptake Inhibition (NET): 5.66; melting point: 150 to 151 °C
OCCN1CCN(C[C@H]2C[C@@H]3c4ccccc4Oc4ccc(F)cc4[C@H]3N2)CC1 [compound 19, 2-(4-{[(2R,3aR,12bS)-11-fluoro-2,3,3a,12b-tetrahydro-1H-dibenzo[2,3:6,7]-oxepino[4,5-b]pyrrol-2-yl]methyl}-1-piperazinyl)ethanol]	> 10000	
OC1CCN(C[C@H]2C[C@@H]3c4ccccc4Oc4ccc(F)cc4[C@H]3N2)C1 (stereo partly drawn) [compound 20, 1-{[(2R,3aR,12bS)-11-fluoro-2,3,3a,12b-tetrahydro-1H-dibenzo[2,3:6,7]oxepino-[4,5-b]pyrrol-2-yl]methyl}-3-pyrrolidinol]	417	
Fc1ccc2c(c1)[C@H]1N[C@@H](CN3CCOCC3)C[C@@H]1c1ccccc1C2 [compound 42, (2R,3aR,12bS)-11-fluoro-2-(4-morpholinylmethyl)-1,2,3,3a,8,12b-hexahydrodibenzo[3,4:6,7]cyclohepta[1,2-b]pyrrole]	5500	
CN1C[C@@H]2C[C@@H]3c4ccccc4Cc4ccc(F)cc4[C@H]3N2C1 [compound 1, (4aS,13bR,14aS)-6-fluoro-2-methyl-1,2,3,4a,9,13b,14,14a-octahydrodibenzo-[3′,4′:6′,7′]cyclohepta[1′,2′:4,5]pyrrolo[1,2-c]imidazole]	115	
CN(C)C[C@@H]1C[C@@H]2c3ccccc3Cc3ccc(F)cc3[C@H]2[S@@+]1[O-] [compound 26, [(2S,3aR,12bS)-11-fluoro-1-oxido-3,3a,8,12b-tetrahydro-2H-dibenzo[3,4:6,7]-cyclohepta[1,2-b]thien-2-yl]-N,N-dimethylmethanamine]	> 10000	
COCC(=O)N1[C@@H](CN(C)C)C[C@@H]2c3ccccc3Cc3ccc(F)cc3[C@H]21 [compound 10, [(2R,3aR,12bS)-11-fluoro-1-(methoxyacetyl)-1,2,3,3a,8,12b-hexahydrodibenzo-[3,4:6,7]cyclohepta[1,2-b]pyrrol-2-yl]-N,N-dimethylmethanamine]	4790	
Fc1ccc2c(c1)[C@@H]1[C@H](C[C@H]3CNC(=S)N31)c1ccccc1C2 [compound 3, (4aS,13bR,14aS)-6-fluoro-1,4a,9,13b,14,14a-hexahydrodibenzo[3′,4′:6′,7′]cycloheta[1′,2′:4,5]pyrrolo[1,2-c]imidazole-3(2H)-thione]		NET Reuptake Inhibition (NET): 5.24
CN1C[C@@H]2C[C@@H]3c4ccccc4Cc4ccc(F)cc4[C@H]3N2C1=O [compound 16, (4aS,13bR,14aS)-6-fluoro-2-methyl-1,4a,9,13b,14,14a-hexahydrodibenzo-[3′,4′:6′,7′]cyclohepta[1′,2′:4,5]pyrrolo[1,2-c]imidazol-3(2H)-one]	> 10000	
CNC[C@H]1CC[C@@H]2c3ccccc3Cc3ccc(F)cc3[C@H]2O1 [compound 46, [(2R,4aR,13bS)-12-fluoro-2,3,4,4a,9,13b-hexahydrodibenzo[3,4:6,7]cyclohepta-[1,2-b]pyran-2-yl]-N-methylmethanamine]	398	
CN(C)CC1CO[C@H]2c3cc(F)ccc3Cc3ccccc3[C@@H]12 (mixture of isomers) [compound 48, [(3aR,12bR)-11-fluoro-3,3a,8,12b-tetrahydro-2H-dibenzo[3,4:6,7]cyclohepta[1,2-b]furan-3-yl]-N,N-dimethylmethanamine]	224	
CNC[C@H]1C[C@@H]2c3ccccc3Cc3ccc(F)cc3[C@H]2N1C=O [compound 38, (2R,3aR,12bS)-11-fluoro-2-[(methylamino)methyll]-3,3a,8,12b-tetrahydrodibenzo-[3,4: 6,7]-cyclohepta[1,2-b]pyrrole-1(2H)-carbaldehyde]	490	
CN(C)C[C@@H]1C[C@@H]2c3ccccc3Cc3ccc(F)cc3[C@H]2S1(=O)=O [compound 22, [(2S,3aR,12bS)-11-fluoro-1,1-dioxido-3,3a,8,12b-tetrahydro-2H-dibenzo[3,4:6,7]-cyclohepta[1,2-b]thien-2-yl]-N,N-dimethylmethanamine]	4790	
CN(C)C[C@H]1C[C@@H]2c3ccccc3Cc3ccc(F)cc3[C@H]2N1 [37a, [(2R,3aR,12bS)-11-fluoro-1,2,3,3a,8,12b-hexahydrodibenzo[3,4:6,7]cyclohepta-[1,2-b]pyr-rol-2-yl]-N,N-dimethylmethanamine]	7.94	
CN(C)C[C@H]1C[C@@H]2c3ccccc3Cc3ccc(F)cc3[C@H]2N1C [compound 5, [(2R,3aR,12bS)-11-fluoro-1-methyl-1,2,3,3a,8,12b-hexahydrodibenzo[3,4:6,7]-cyclohepta[1,2-b]pyrrol-2-yl]-N,N-dimethylmethanamine]	288	
COCCN1[C@@H](CN(C)C)C[C@@H]2c3ccccc3Cc3ccc(F)cc3[C@H]21 [compound 40, [(2R,3aR,12bS)-11-Fluoro-1-(2-methoxyethyl)-1,2,3,3a,8,12b-hexahydrodibenzo-[3,4:6,7]-cyclohepta[1,2-b]pyrrol-2-yl]-N,N-dimethylmethanamine]	479	
CN(C)C[C@H]1C[C@@H]2c3ccccc3Oc3ccc(F)cc3[C@H]2N1 [compound 17, [(2R,3aR,12bS)-11-fluoro-2,3,3a,12b-tetrahydro-1H-dibenzo[2,3:6,7]oxepino[4,5-b]pyrrol-2-yl]-N,N-dimethylmethanamine]	7.41	
CN(C)[C@@H]1CO[C@H]2c3cc(F)ccc3Cc3ccccc3[C@H]2C1 [compound 32, (3S,4aR,13bR)-12-fluoro-N,N-dimethyl-2,3,4,4a,9,13b-hexahydrodibenzo[3,4:6,7]-cyclohepta[1,2-b]pyran-3-amine]	19.5	
O=C1CNC[C@H]2C[C@@H]3c4ccccc4Cc4ccc(F)cc4[C@H]3N12 [compound 12, (5aS,14bR,15aR)-7-fluoro-1,2,3,5a,10,14b,15,15a-octahydro-4H-dibenzo[3′,4′:6′,7′]cyclohepta[1′,2′:4,5]pyrrolo[1,2-a]pyrazin-4-one]	3470	
O=C1CO[C@H]2c3cc(F)ccc3Cc3ccccc3[C@H]2C1 [compound 31, (4aR,13bR)-12-fluoro-4,4a,9,13b-tetrahydrodibenzo[3,4:6,7]cyclohepta[1,2-b]-pyran-3(2H)-one]		melting point: 146 to 148 °C
CN(C)C[C@H]1C[C@@H]2c3ccccc3Cc3ccc(F)cc3[C@H]2S1 [compound 23, [(2R,3aR,12bS)-11-fluoro-3,3a,8,12b-tetrahydro-2H-dibenzo[3,4:6,7]cyclohepta-[1,2-b]thien-2-yl]-N,N-dimethylmethanamine]	28.2	
OCCN1CCN(C[C@H]2C[C@@H]3c4ccccc4Cc4ccc(F)cc4[C@H]3N2)CC1 [43a, 2-(4-{[(2R,3aR,12bS)-11-fluoro-1,2,3,3a,8,12b-hexahydrodibenzo[3,4:6,7]-cyclohepta[1,2-b]pyrrol-2-yl]methyl}-1-piperazinyl)ethanol]	> 10000	
